Experimental data from US20260028673A1, “PR[…] OF TCF1+ […]-CELLS IN SEVERE COVID-19 AS MEDIATED BY INTERLEUKIN 12 (IL-12)” (priority 2022, published 2026).
“Also recorded” adds a separate entry of the source.

Legend:
IL12p40 = IL12p40 (Homo sapiens, UniProt P29460); format: cell-based; details: severe sera, 6 days, FIG. 9D
TCF-1 = details: reference 67; transcriptional level, by inhibiting DNA methyltransferases; cited from earlier work
IL-12 production = details: reference 51; cited from earlier work
COVID-19 = details: reference 50; cited from earlier work

Sequence of IL12p40 (P29460 23-328): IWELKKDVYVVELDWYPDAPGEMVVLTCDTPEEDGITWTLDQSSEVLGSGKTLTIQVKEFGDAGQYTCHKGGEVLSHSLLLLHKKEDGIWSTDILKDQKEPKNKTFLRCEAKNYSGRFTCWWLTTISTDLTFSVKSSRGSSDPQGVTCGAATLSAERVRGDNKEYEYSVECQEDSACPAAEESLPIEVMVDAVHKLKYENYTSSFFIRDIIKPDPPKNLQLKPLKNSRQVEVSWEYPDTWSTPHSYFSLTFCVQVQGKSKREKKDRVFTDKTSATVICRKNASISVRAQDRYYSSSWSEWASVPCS
Sequence of IL12p40 (P29459 23-219, further chain): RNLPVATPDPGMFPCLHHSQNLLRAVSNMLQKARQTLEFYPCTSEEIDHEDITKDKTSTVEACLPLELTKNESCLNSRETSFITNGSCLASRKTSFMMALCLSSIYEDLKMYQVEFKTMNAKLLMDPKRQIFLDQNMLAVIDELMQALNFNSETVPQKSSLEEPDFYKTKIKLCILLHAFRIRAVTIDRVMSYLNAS

Q: For “IL-12: proinflammatory cytokine interleukin 12”, which “TCF1 expression in naïve, TCM, TEM and TEMRA T-cell subsets” value (IL12p40) is on record?
A: restored

Q: What about the “TCF-1 (TCF1) expression” value (TCF-1) of the same compound?
A: down-regulate TCF-1 at the transcriptional level; also recorded: downregulate TCF1

Q: Which IL-12 production (IL-12 production) does the source give for `C[C@@H]1C[C@H]2[C@@H]3CCC4=CC(=O)C=C[C@]4(C)[C@@]3(F)[C@@H](O)C[C@]2(C)[C@@]1(O)C(=O)CO` [dexamethasone] here?
A: inhibits IL-12 production

Q: And the “Success in treating COVID-19 patients” value (COVID-19)?
A: proven successful
